Source: patent US11524960B2, “Heterobicyclic inhibitors of MAT2A and methods of use for treating cancer” (AGIOS PHARMACEUTICALS, INC., priority 2018, dated 2022)

Experiments:
[1] = test system: HCT116 MTAP+/+; assay: Inhibition of cellular proliferation (Cell Titer Glo), HCT116 MTAP+/+; type: cell-based, human; details: Homo sapiens, HCT-116, 96 h, 4 days, IC50 score, read-out: 4 Day Relative Growth Inhibition (MTAP +/+; Example 277)
Outline: (§1)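 Proliferation was read as ATP luminescence (Cell Titer Glo) after a 4-day, 37 °C exposure of HCT116 cells differing only in MTAP deletion status. Dosing was 10 points, 3-fold steps, added 24 h post-plating; signal minus blank, relative to 0.2% DMSO control wells, was plotted against log molar concentration.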

[2] = test system: HCT116 MTAP−/−; assay: Inhibition of cellular proliferation (Cell Titer Glo), HCT116 MTAP−/−; type: cell-based, human; details: Homo sapiens, HCT-116, 96 h, 4 days, IC50 score, read-out: 4 Day Relative Growth Inhibition (MTAP −/−; Example 277)
Outline: as §1

[3] = target: T1, MAT2A homodimer (Homo sapiens, UniProt P31153); assay: Biochemical assay: inhibition of MAT2A (phosphate release, PiColorLock Gold); details: MAT2A IC50 score; read-out: Enzyme Inhibition (Example 275)
T1 construct: inferred from Ni sepharose purification and imidazole elution; made in house; host or cells: Sf9 insect cells, recombinant baculovirus (Bac to Bac, pFASTBAC1)
Outline: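 Phosphate formed alongside SAM was read with PiColorLock Gold and quantified against a potassium phosphate standard curve. Reactions ran 60 min at 25 °C after adding a substrate mix of 500 μM ATP and 400 μM L-methionine (mix concentrations). Compound had first been preincubated 60 min with recombinant Sf9-derived MAT2A homodimer ([…]) in pH 8.0 Tris buffer containing MgCl2, KCl, EDTA and BSA.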

[4] = test system: SAM in HCT116 human colon carcinoma cell line engineered to delete the MTAP gene (MTAP −/−); assay: Cellular assay of target engagement (SAM) by LC-MS/MS; type: cell-based; details: Homo sapiens, HCT-116, 72 h, IC50 score, read-out: Cell 72 h SAM Inhibition (MTAP −/−; Example 276)
Outline: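 Intracellular SAM, the MAT2A product, was measured by quantitative LC-MS/MS against a d3-SAM standard in methanol/acetic acid extracts. Extracts came from HCT116 MTAP −/− cells exposed for 72 h at 37 °C to a ten-point, threefold dilution series of compound, added one day after seeding.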

T1 sequence (P31153 whole entry): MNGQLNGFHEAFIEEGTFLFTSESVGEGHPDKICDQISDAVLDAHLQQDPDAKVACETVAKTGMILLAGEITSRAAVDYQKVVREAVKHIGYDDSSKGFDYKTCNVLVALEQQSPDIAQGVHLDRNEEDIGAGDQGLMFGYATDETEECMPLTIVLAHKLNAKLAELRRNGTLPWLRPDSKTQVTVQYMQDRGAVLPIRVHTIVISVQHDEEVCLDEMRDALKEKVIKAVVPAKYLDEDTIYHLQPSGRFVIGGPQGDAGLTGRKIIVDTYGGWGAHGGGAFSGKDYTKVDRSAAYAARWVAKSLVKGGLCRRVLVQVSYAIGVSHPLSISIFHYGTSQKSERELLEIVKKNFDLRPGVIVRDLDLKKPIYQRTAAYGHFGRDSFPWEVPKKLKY

Compound | IC50 [1] [nM] | IC50 [2] [nM] | IC50 [3] [nM] | IC50 [4] [nM]
Cn1cc2cc(-n3cc4cnc(NCC(F)(F)F)nc4c(-c4ccc(OC(F)(F)F)cc4)c3=O)ccc2n1 [Example 160, 6-(2-methyl-2H-indazol-5-yl)-2-((2,2,2-trifluoroethyl)amino)-8-(4-(trifluoromethoxy)phenyl)pyrido[4,3-d]pyrimidin-7(6H)-one] | > 10000 | < 100 | < 100 | < 100
COc1ccc(-n2cc3cnc(NCC(F)(F)F)nc3c(-c3ccc(Cl)cc3)c2=O)cc1 [Example 193, 8-(4-chlorophenyl)-6-(4-methoxyphenyl)-2-((2,2,2-trifluoroethyl)amino)pyrido[4,3-d]pyrimidin-7(6H)-one] | > 10000 | 100 to 10000 | < 100 | 100 to 1000
CC(C)n1cc2cc(-n3cc4cnc(NCC(F)(F)F)nc4c(-c4ccc(OC(F)F)cc4)c3=O)ccc2n1 [Example 153, 8-(4-(difluoromethoxy)phenyl)-6-(2-isopropyl-2H-indazol-5-yl)-2-((2,2,2-trifluoroethyl)amino)pyrido[4,3-d]pyrimidin-7(6H)-one] | > 10000 | < 100 | < 100 | < 100
Cn1cc2cc(-n3cc4cnc(NCC(F)F)nc4c(-c4ccc(Cl)cc4)c3=O)ccc2n1 [Example 102-A] | 100 to 10000 | < 100 | < 100 | < 100
[2H]C([2H])([2H])Oc1ccc(-c2c(=O)n(-c3ccc4nn(C)cc4c3)cc3ccc(OCC(F)F)nc23)cc1 [Example 115-A] | 100 to 10000 | < 100 | < 100 | < 100
CCNc1ncc2cn(-c3ccc4nn(C)cc4c3)c(=O)c(-c3ccc(OC(F)F)cc3)c2n1 [Example 171, 8-(4-(difluoromethoxy)phenyl)-2-(ethylamino)-6-(2-methyl-2H-indazol-5-yl)pyrido[4,3-d]pyrimidin-7(6H)-one] | > 10000 | < 100 | < 100 | < 100
CCOc1ncc2cn(-c3ccc4nn(C)cc4c3)c(=O)c(-c3ccc(Cl)cc3)c2n1 [Example 270, 8-(4-chlorophenyl)-2-ethoxy-6-(2-methyl-2H-indazol-5-yl)pyrido[4,3-d]pyrimidin-7(6H)-one] | > 10000 | < 100 | < 100 | < 100
CCOc1ccc2cn(-c3ccc4ncccc4c3)c(=O)c(-c3ccc(Cl)cc3)c2n1 [Example 243, 8-(4-chlorophenyl)-2-ethoxy-6-(quinolin-6-yl)-1,6-naphthyridin-7(6H)-one] | > 10000 | < 100 | < 100 | < 100
Cn1cc2cc(-n3cc4cnc(NCC(F)(F)F)nc4c(-c4ccc(Br)cc4)c3=O)ccc2n1 [Example 103-A] | > 10000 | < 100 | < 100 | < 100
CCOc1ccc2cn(-c3ccc4ncn(C)c4c3)c(=O)c(-c3ccc(OC(F)F)nc3)c2n1 [Example 229, 8-(6-(difluoromethoxy)pyridin-3-yl)-2-ethoxy-6-(1-methyl-1H-benzo[d]imidazol-6-yl)-1,6-naphthyridin-7(6H)-one] | 100 to 10000 | < 100 | < 100 | < 100
COc1ccc(-n2cc3cnc(NCC(F)F)nc3c(-c3ccc(Br)cc3)c2=O)cc1 [Example 189, 8-(4-bromophenyl)-2-((2,2-difluoroethyl)amino)-6-(4-methoxyphenyl)pyrido[4,3-d]pyrimidin-7(6H)-one] | 100 to 10000 | 100 to 10000 | < 100 | < 100
Cn1cc2cc(-n3cc4cnc(OCC(F)(F)F)nc4c(-c4ccc(Cl)cc4)c3=O)ccc2n1 [Example 262, 8-(4-chlorophenyl)-6-(2-methyl-2H-indazol-5-yl)-2-(2,2,2-trifluoroethoxy)pyrido[4,3-d]pyrimidin-7(6H)-one] | > 10000 | 100 to 10000 | < 100 | < 100
COc1ccc(-c2c(=O)n(-c3ccc4c(c3)OCCO4)cc3cnc(NCC(F)(F)F)nc23)cc1 [Example 177, 6-(2,3-dihydrobenzo[b][1,4]dioxin-6-yl)-8-(4-methoxyphenyl)-2-((2,2,2-trifluoroethyl)amino)pyrido[4,3-d]pyrimidin-7(6H)-one] | > 10000 | 100 to 10000 | < 100 | < 100
Cc1c2cc(-n3cc4cnc(NCC(F)(F)F)nc4c(-c4ccc(Cl)cc4)c3=O)ccc2nn1C [Example 132, 8-(4-chlorophenyl)-6-(2,3-dimethyl-2H-indazol-5-yl)-2-(2,2,2-trifluoroethylamino)pyrido[4,3-d]pyrimidin-7(6)-one] | > 10000 | < 100 | < 100 | < 100
CCOc1ccc2cn(-c3ccc4ncn(C)c4c3)c(=O)c(-c3ccc(C4CC4)nc3)c2n1 [Example 228, 8-(6-cyclopropylpyridin-3-yl)-2-ethoxy-6-(1-methyl-1H-benzo[d]imidazol-6-yl)-1,6-naphthyridin-7(6H)-one] | 100 to 10000 | < 100 | < 100 | < 100
Cc1ccc(-c2c(=O)n(-c3ccc4nn(C)cc4c3)cc3ccc(OCC(F)(F)F)nc23)cn1 [Example 130-A] | 100 to 10000 | < 100 | < 100 | < 100
CCOc1cnc2cn(-c3ccc4nn(C)cc4c3)c(=O)c(-c3ccc(OC(F)F)cc3)c2n1 [Example 145-A] | 100 to 10000 | < 100 | < 100 | < 100
COc1ccc(-n2cc3cnc(NCC(F)(F)F)nc3c(-c3ccc(OC(F)F)cc3)c2=O)cc1 [Example 195, 8-(4-(difluoromethoxy)phenyl)-6-(4-methoxyphenyl)-2-((2,2,2-trifluoroethyl)amino)pyrido[4,3-d]pyrimidin-7(6H)-one] | > 10000 | < 100 | < 100 | < 100
CCOc1cc(C)c2cn(-c3ccc4nn(C)cc4c3)c(=O)c(-c3ccc(Cl)cc3)c2n1 [Example 122-A] | 100 to 10000 | < 100 | < 100 | < 100
COc1ccc(-c2c(=O)n(-c3ccc4c(c3)N(C)CCO4)cc3cnc(NCC(F)(F)F)nc23)cc1 [Example 145, 8-(4-methoxyphenyl)-6-(4-methyl-3,4-dihydro-2H-benzo[b][1,4]oxazin-6-yl)-2-((2,2,2-trifluoroethyl)amino)pyrido[4,3-d]pyrimidin-7(6H)-one] | > 10000 | < 100 | < 100 | < 100
Cn1cc2cc(-n3cc4ccc(NC5CC5)nc4c(-c4ccc(OC(F)F)cc4)c3=O)ccc2n1 [Example 242, 2-(cyclopropylamino)-8-(4-(difluoromethoxy)phenyl)-6-(2-methyl-2H-indazol-5-yl)-1,6-naphthyridin-7(6H)-one] | > 10000 | < 100 | < 100 | < 100
CCOc1ccc2cn(-c3ccc4nn(C)c(C)c4c3)c(=O)c(-c3ccc(Cl)cc3)c2n1 [Example 105-A] | 100 to 10000 | < 100 | < 100 | < 100
Cn1cnc2ccc(-n3cc4cnc(NCC(F)(F)F)nc4c(-c4ccc(OC(F)F)cc4)c3=O)cc21 [Example 151, 8-(4-(difluoromethoxy)phenyl)-6-(1-methyl-1H-benzo[d]imidazol-6-yl)-2-((2,2,2-trifluoroethyl)amino)pyrido[4,3-d]pyrimidin-7(6H)-one] | 100 to 10000 | < 100 | < 100 | < 100
CCOc1ccc2cn(-c3ccc4ncn(C)c4c3)c(=O)c(-c3ccc(C(F)(F)F)cc3)c2n1 [Example 227, 2-ethoxy-6-(1-methyl-1H-benzo[d]imidazol-6-yl)-8-(4-(trifluoromethyl)phenyl)-1,6-naphthyridin-7(6H)-one] | 100 to 10000 | < 100 | < 100 | < 100
Cn1cc2cc(-n3cc4ccc(OC5CC5)nc4c(-c4ccc(Cl)cc4)c3=O)ccc2n1 [Example 210, 8-(4-chlorophenyl)-2-cyclopropoxy-6-(2-methyl-2H-indazol-5-yl)-1,6-naphthyridin-7(6H)-one] | > 10000 | < 100 | < 100 | < 100
CCOc1ccc2cn(-c3ccc4nn(C)cc4c3)c(=O)c(-c3ccc(-c4cc[nH]n4)cc3)c2n1 [Example 223, 8-(4-(1H-pyrazol-3-yl)phenyl)-2-ethoxy-6-(2-methyl-2H-indazol-5-yl)-1,6-naphthyridin-7(6H)-one] | > 10000 | 100 to 10000 | < 100 | 100 to 1000
